Where two headings read alike, the source gives them in different places.
How the values were obtained:
[1] = target: T1, ASGPR (Homo sapiens, UniProt P07306); experiment: Affinity to ASGPR by surface plasmon resonance (SPR)
T1 sequence (P07306 1-291): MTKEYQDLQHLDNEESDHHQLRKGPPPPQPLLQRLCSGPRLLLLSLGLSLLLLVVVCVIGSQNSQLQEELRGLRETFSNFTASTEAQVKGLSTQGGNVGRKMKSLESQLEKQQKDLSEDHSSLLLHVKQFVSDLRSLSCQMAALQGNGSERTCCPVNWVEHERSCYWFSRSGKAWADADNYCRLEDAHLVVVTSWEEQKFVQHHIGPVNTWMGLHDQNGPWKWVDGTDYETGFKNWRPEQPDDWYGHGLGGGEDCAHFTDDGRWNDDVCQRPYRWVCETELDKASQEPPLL

[2] = tested on: HepG2 cells; experiment: Cellular uptake assay of AF488-labeled antibody (HepG2); format: cell-based
How it was run: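 Ternary-complex uptake via ASGPR was imaged after fixation: the read-out is AF488-positive HepG2 cells divided by total DAPI nuclei. Degrader dilutions (IgG- or DNP-based, 0.1% DMSO final) were co-incubated 6 h at 37° C. with 100 nM of the corresponding fluorescent antibody.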

[3] = target: IgG; experiment: Affinity to IgG by surface plasmon resonance (SPR); format: binding
Protocol: Immobilization levels ranging from 1000-1300 resonance units (RU) are obtained. The running buffer is 10 mM HEPES, pH 7.4, 400 mM NaCl, 0.005% P20, […].

[4] = target: T2, ASGPR receptor on the cell surface (HepG2 cells) (Homo sapiens, UniProt P07306); experiment: Ternary complex formation assay (flow cytometry, HepG2); format: cell-based
T2 construct: host or cells: HepG2
T2 sequence (P07306 1-291): T1 sequence (P07306 1-291)
T2 sequence (P07307 1-311 partner): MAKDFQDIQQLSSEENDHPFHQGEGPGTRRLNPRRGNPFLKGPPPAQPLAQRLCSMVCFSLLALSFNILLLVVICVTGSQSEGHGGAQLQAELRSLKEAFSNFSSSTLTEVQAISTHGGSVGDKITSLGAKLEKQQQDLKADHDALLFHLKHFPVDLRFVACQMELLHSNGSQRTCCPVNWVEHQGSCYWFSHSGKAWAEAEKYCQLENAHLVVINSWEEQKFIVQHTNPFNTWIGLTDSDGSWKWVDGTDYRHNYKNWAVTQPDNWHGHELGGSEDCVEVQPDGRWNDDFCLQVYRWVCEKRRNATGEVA
How it was run: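 HepG2 cells (1×10^5/well) incubated 1 h at 4 °C with 100 nM AF488-labeled anti-human IgG plus serial IgG-based degrader, or 100 nM AF488 rabbit anti-DNP plus serial DNP-based degrader. After washing, cell-associated AF488 MFI read by flow cytometry; peak MFI marks optimal degrader concentration for ternary complex.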

[5] = HepG2 cells, read-out: Uptake EC50
[6] = HepG2 cells, ternary complex formation, read-out: TCF EC50

Row | EC50 [2, 5] [nM] | Kd ([3]; SPR, read-out: IgG KD) [nM] | EC50 [4, 6] [nM] | Compound | Kd [1] [nM] | EC50 ([2]; read-out: Uptake Assay EC50) [nM] | Kd ([3]; read-out: IgG SPR Binding Kd) [nM] | EC50 [4] [nM] | EC50 ([2]; Homo sapiens, HepG2, 6 h, read-out: Uptake Assay EC50 (nM)) [nM] | EC50 ([4]; Ternary Complex EC50 (nM), HepG2 cells, 100 nM AF488-labeled antibody, 1 hour at 4° C., class symbols) [nM]
1 | 100 to 500 | < 100 | < 100 | CC(C)C[C@@H]1NC(=O)[C@H](Cc2cnc[nH]2)NC(=O)[C@H](Cc2c[nH]c3ccccc23)NC(=O)[C@H](C)NC(=O)[C@@H]2CSSC[C@H](NC(=O)[C@H](Cc3c[nH]c4ccccc34)NC(=O)[C@H](C(C)C)NC(=O)[C@H](CC(C)C)NC(=O)[C@H](CCC(=O)O)NC(=O)CNC1=O)C(=O)N[C@@H]([C@@H](C)O)C(=O)N1CCC[C@@H]1C(=O)N1C[C@@H](NC(=O)c3ccc4c(c3)C(=O)c3cc(C(=O)NC[C@H]5OC[C@H](Nc6cncc(C(F)(F)F)n6)[C@@H](O)[C@H]5O)ccc3-4)C[C@H]1C(=O)N[C@@H](CC(=O)O)C(=O)N2 [Compound 64] | < 100 |  |  |  |  | 
2 | < 100 | < 100 | < 100 | CC(C)C[C@@H]1NC(=O)[C@H](Cc2c[nH]cn2)NC(=O)[C@H](Cc2c[nH]c3ccccc23)NC(=O)[C@H](C)NC(=O)[C@@H]2CSSC[C@H](NC(=O)[C@H](Cc3c[nH]c4ccccc34)NC(=O)[C@H](C(C)C)NC(=O)[C@H](CC(C)C)NC(=O)[C@H](CCC(=O)O)NC(=O)CNC1=O)C(=O)N[C@@H]([C@@H](C)O)C(=O)N1CCC[C@@H]1C(=O)N1C[C@@H](NC(=O)CCOCCOCCOCCOCCNC(=O)CCCc3cn(CCCCCC(=O)NC(COCCC(=O)NCCOCCOCCOCCOC[C@@]45CO[C@@H](O4)[C@H](NC(=O)C(F)(F)F)[C@@H](O)[C@H]5O)COCCC(=O)NCCOCCOCCOCCOC[C@@]45CO[C@@H](O4)[C@H](NC(=O)C(F)(F)F)[C@@H](O)[C@H]5O)nn3)C[C@H]1C(=O)N[C@@H](CC(=O)O)C(=O)N2 [Compound 94] | < 100 |  |  |  |  | 
3 | < 100 | < 100 | < 100 | CC(C)C[C@@H]1NC(=O)[C@H](Cc2cnc[nH]2)NC(=O)[C@H](Cc2c[nH]c3ccccc23)NC(=O)[C@H](C)NC(=O)[C@@H]2CSSC[C@H](NC(=O)[C@H](Cc3c[nH]c4ccccc34)NC(=O)[C@H](C(C)C)NC(=O)[C@H](CC(C)C)NC(=O)[C@H](CCC(=O)O)NC(=O)CNC1=O)C(=O)N[C@@H]([C@@H](C)O)C(=O)N1CCC[C@@H]1C(=O)N1C[C@@H](NC(=O)c3ccc(N4CCC(CN5CCN(C[C@H]6OC[C@H](Nc7cncc(C(F)(F)F)n7)[C@@H](O)[C@H]6O)CC5)CC4)nn3)C[C@H]1C(=O)N[C@@H](CC(=O)O)C(=O)N2 [Compound 66] | < 100 |  |  |  |  | 
4 | < 100 | < 100 | < 100 | CC(C)C[C@@H]1NC(=O)[C@H](Cc2cnc[nH]2)NC(=O)[C@H](Cc2c[nH]c3ccccc23)NC(=O)[C@H](C)NC(=O)[C@@H]2CSSC[C@H](NC(=O)[C@H](Cc3c[nH]c4ccccc34)NC(=O)[C@H](C(C)C)NC(=O)[C@H](CC(C)C)NC(=O)[C@H](CCC(=O)O)NC(=O)CNC1=O)C(=O)N[C@@H]([C@@H](C)O)C(=O)N1CCC[C@@H]1C(=O)N1C[C@@H](NC(=O)CNC(COCCC(=O)NC[C@H]3OC[C@H](Nc4cncc(C(F)(F)F)n4)[C@@H](O)[C@H]3O)COCCC(=O)NC[C@H]3OC[C@H](Nc4cncc(C(F)(F)F)n4)[C@@H](O)[C@H]3O)C[C@H]1C(=O)N[C@@H](CC(=O)O)C(=O)N2 [Compound 65] | < 100 |  |  |  |  | 
5 |  |  |  | CC(C)C[C@@H]1NC(=O)[C@H](Cc2c[nH]cn2)NC(=O)[C@H](Cc2c[nH]c3ccccc23)NC(=O)[C@H](C)NC(=O)[C@@H](NC(=O)[C@H](CC(=O)O)NCCOCCOCCOCCOCCNC(=O)CCCc2cn(CCCCCC(=O)NC(COCCC(=O)NCCOCCOCCOCCOC[C@H]3OC[C@H](Nc4nccc(C(F)(F)F)n4)[C@@H](O)[C@H]3O)COCCC(=O)NCCOCCOCCOCCOC[C@H]3OC[C@H](Nc4nccc(C(F)(F)F)n4)[C@@H](O)[C@H]3O)nn2)CSSC[C@@H](C(=O)N[C@H](C(N)=O)[C@@H](C)O)NC(=O)[C@H](Cc2c[nH]c3ccccc23)NC(=O)[C@H](C(C)C)NC(=O)[C@H](CC(C)C)NC(=O)[C@H](CCC(=O)O)NC(=O)CNC1=O [Compound 10] | < 100 | < 100 | < 100 | < 100 |  | 

Row | Compound | EC50 [2, 5] [nM] | Kd ([3]; SPR, read-out: IgG KD) [nM] | EC50 [4, 6] [nM] | Kd [1] [nM] | EC50 ([2]; read-out: Uptake Assay EC50) [nM] | Kd ([3]; read-out: IgG SPR Binding Kd) [nM] | EC50 [4] [nM] | EC50 ([2]; Homo sapiens, HepG2, 6 h, read-out: Uptake Assay EC50 (nM)) [nM] | EC50 ([4]; Ternary Complex EC50 (nM), HepG2 cells, 100 nM AF488-labeled antibody, 1 hour at 4° C., class symbols) [nM]
6 | O=C(CCOCC(COCCC(=O)NCCOCCOCCOCCOC[C@H]1OC[C@H](Nc2nccc(C(F)(F)F)n2)[C@@H](O)[C@H]1O)NC(=O)COCCOCCOCCNc1ccc([N+](=O)[O-])cc1[N+](=O)[O-])NCCOCCOCCOCCOC[C@H]1OC[C@H](Nc2nccc(C(F)(F)F)n2)[C@@H](O)[C@H]1O [Compound 32, 3,3′-((2-(2-(2-(2-(2-((2,4-dinitrophenyl)amino)ethoxy)ethoxy)ethoxy)acetamido)propane-1,3-diyl)bis(oxy))bis(N-(1-((2R,3R,4R,5S)-3,4-dihydroxy-5-((4-(trifluoromethyl)pyrimidin-2-yl)amino)tetrahydro-2H-pyran-2-yl)-2,5,8,11-tetraoxatridecan-13-yl)propanamide)] | < 100 | < 100 | < 100 | < 100 |  |  |  | < 100 | < 100
7 | CC(=O)N[C@H]1[C@H](OCCOCCOCCOCCNC(=O)CCOCC(COCCC(=O)NCCOCCOCCOCCO[C@@H]2O[C@H](CO)[C@H](O)[C@H](O)[C@H]2NC(C)=O)(COCCC(=O)NCCOCCOCCOCCO[C@@H]2O[C@H](CO)[C@H](O)[C@H](O)[C@H]2NC(C)=O)NC(=O)CCCCCn2cc(CCCC(=O)NCCOCCOCCOCCOCCC(=O)N[C@H]3C[C@H]4C(=O)N[C@@H](CC(=O)O)C(=O)N[C@H]5CSSC[C@H](NC(=O)[C@H](Cc6c[nH]c7ccccc67)NC(=O)[C@H](C(C)C)NC(=O)[C@H](CC(C)C)NC(=O)[C@H](CCC(=O)O)NC(=O)CNC(=O)[C@H](CC(C)C)NC(=O)[C@H](Cc6c[nH]cn6)NC(=O)[C@H](Cc6c[nH]c7ccccc67)NC(=O)[C@H](C)NC5=O)C(=O)N[C@@H]([C@@H](C)O)C(=O)N5CCC[C@@H]5C(=O)N4C3)nn2)O[C@H](CO)[C@H](O)[C@@H]1O [Compound 85] | > 1000 | < 100 |  | 500 to 1000 |  |  | > 1000 |  | 
8 | CC(=O)N[C@H]1[C@H](OCCOCCOCCOCCNC(=O)CCOCC(COCCC(=O)NCCOCCOCCOCCO[C@@H]2O[C@H](CO)[C@H](O)[C@H](O)[C@H]2NC(C)=O)NC(=O)CCCCCn2cc(CCCC(=O)NCCOCCOCCOCCOCCC(=O)N[C@H]3C[C@H]4C(=O)N[C@@H](CC(=O)O)C(=O)N[C@H]5CSSC[C@H](NC(=O)[C@H](Cc6c[nH]c7ccccc67)NC(=O)[C@H](C(C)C)NC(=O)[C@H](CC(C)C)NC(=O)[C@H](CCC(=O)O)NC(=O)CNC(=O)[C@H](CC(C)C)NC(=O)[C@H](Cc6c[nH]cn6)NC(=O)[C@H](Cc6c[nH]c7ccccc67)NC(=O)[C@H](C)NC5=O)C(=O)N[C@@H]([C@@H](C)O)C(=O)N5CCC[C@@H]5C(=O)N4C3)nn2)O[C@H](CO)[C@H](O)[C@@H]1O [Compound 84] | > 1000 | < 100 |  | > 1000 |  |  | > 1000 |  | 
